According to ChEMBL document CHEMBL1156974, “Design, synthesis and in vitro/in vivo evaluation of orally bioavailable prodrugs of a catechol-O-methyltransferase inhibitor” (Bioorg Med Chem Lett, 2010):
≈ marks a conversion by molar mass, not a printed value.

Columns and labels:
[1] = Aqueous solubility in acetate buffer at pH 4.0 by HPLC analysis; assay type: physicochemical
[2] = Aqueous solubility in phosphate buffer at pH 7.4 by HPLC analysis; assay type: physicochemical
[3] = Uncoupling activity in Wistar rat mitochondria assessed as increase in oxygen consumption by mitochondrial respiration assay relative to 10 uM dinitrophenol; assay type: ADME
[4] = Distribution coefficient, log D at pH 1.2 by HPLC analysis; assay type: physicochemical; settings: octanol/water
[5] = Distribution coefficient, log D at pH 4.0 by HPLC analysis; assay type: physicochemical; settings: octanol/water
[6] = Aqueous solubility in HCl buffer at pH 1.2 by HPLC analysis; assay type: physicochemical
[7] = Distribution coefficient, log D at pH 7.4 by HPLC analysis; assay type: physicochemical; settings: octanol/water
[8] = Chemical stability in fasted state simulated intestinal fluid up to 8 hrs by HPLC analysis; assay type: physicochemical; settings: simulated gi fluid
[9] = Half life in rat liver homogenate by HPLC analysis; assay type: ADME, tissue-based
[10] = target: T1, Catechol O-methyltransferase (Homo sapiens, UniProt P21964); experiment: Inhibition of human recombinant COMT by microplate screening assay
T1 sequence (P21964 whole entry): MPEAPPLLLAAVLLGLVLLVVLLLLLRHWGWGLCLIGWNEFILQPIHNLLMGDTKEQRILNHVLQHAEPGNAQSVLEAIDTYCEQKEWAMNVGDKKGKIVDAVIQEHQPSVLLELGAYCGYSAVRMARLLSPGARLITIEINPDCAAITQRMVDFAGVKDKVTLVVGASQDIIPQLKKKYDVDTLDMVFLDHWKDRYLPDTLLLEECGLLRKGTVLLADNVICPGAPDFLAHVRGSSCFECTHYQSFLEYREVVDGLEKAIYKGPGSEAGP

[11] = Chemical stability in phosphate buffer at pH 7.4 up to 1 week by HPLC analysis; assay type: physicochemical; settings: pH 7.4, 168 h
Serum = experiment: Metabolic stability in human serum up to 8 hrs by HPLC analysis; assay type: ADME, cell-free
[12] = Chemical stability in […] up to 1 week by HPLC analysis; assay type: physicochemical; settings: pH 4, 168 h
[13] = Chemical stability in acetate buffer assessed as hydrolysis half life at pH 4.0 by HPLC analysis; assay type: physicochemical
[14] = Chemical stability in phosphate buffer assessed as hydrolysis half life at pH 7.4 by HPLC analysis; assay type: physicochemical
Rattus norvegicus = experiment: AUC in Wistar rat at 10 umol/kg, po up to 6 hrs by LC/MS/MS relative to 3-Chloro-5,6-dihydroxy-7-nitro-benzo[b]thiophene-2-carboxylic acid; assay type: ADME, organism-based, Plasma; settings: in vivo
[15] = Half life in human serum by HPLC analysis; assay type: ADME, cell-free
[16] = Chemical stability in fasted state simulated intestinal fluid assessed as hydrolysis half life by HPLC analysis; assay type: physicochemical
[17] = acetate buffer, read-out: solubility
[18] = HCl buffer, read-out: solubility
[19] = buffer, BLD = below limit of detection

SMILES | solubility [1, 17] [µg/mL] | solubility [2] [µg/mL] | Uncoupling concentration [3] [µM] | solubility [6, 18] [µg/mL] | logD ([7]; read-out: logD) | half-life [9] [h] | Ki [10] [nM] | Stability [11] | Stability (Serum) | half-life [13] [h] | solubility [6, 19] | half-life [14] [h] | fold change (FC) (Rattus norvegicus) | half-life [15] [h] | further results
O=C(O)c1sc2c([N+](=O)[O-])c(O)c(O)cc2c1Cl | 53 (≈ 183 µM) | 15000 (≈ 51800 µM) | > 50 | 3.9 (≈ 13.5 µM) | 0.06 | – | – | – | – | – | – | – | – | – | logD [4]: 3.64; logD [5]: 1.8; Stability [8]: Stable
COC(=O)c1sc2c([N+](=O)[O-])c(O)c(O)cc2c1Cl | 4.2 (≈ 13.8 µM) | 11.4 (≈ 37.5 µM) | > 10 | 0.7 (≈ 2.31 µM) | 1.51 | 0.33 | 2.2 | Stable | Stable | – | – | – | – | – | Stability [12]: Stable
CCCOC(=O)c1sc2c([N+](=O)[O-])c(O)c(O)cc2c1Cl | 0.5 (≈ 1.51 µM) | 10.8 (≈ 32.6 µM) | > 5 | – | 2.45 | 0.34 | 9.2 | Stable | Stable | 744 | BLD | – | – | – | –
O=C(OCc1ccccc1)c1sc2c([N+](=O)[O-])c(O)c(O)cc2c1Cl | – | 6.9 (≈ 18.2 µM) | > 10 | – | – | 0.865 | 10.2 | – | Stable | – | BLD | 21.6 | – | – | solubility [1, 19]: BLD; logD ([7]; BLD = below limit of detection): BLD
CC(C)C(=O)OCOC(=O)c1sc2c([N+](=O)[O-])c(O)c(O)cc2c1Cl | – | ≥ 200 | > 50 | – | 2.91 | ≤ 0.0167 | 17 | – | – | 202 | BLD | 7.6 | 2 | 5.1 | solubility [1, 19]: BLD; Stability [8]: Stable
CC(OC(=O)c1sc2c([N+](=O)[O-])c(O)c(O)cc2c1Cl)OC(=O)C(C)C (stereo unspecified) | 0.6 (≈ 1.49 µM) | 258 (≈ 639 µM) | > 50 | – | 3.02 | ≤ 0.0167 | 17 | – | – | – | BLD | 48 | 0.5 | 32.3 | Stability [8]: Stable
CCCC(=O)OCOC(=O)c1sc2c([N+](=O)[O-])c(O)c(O)cc2c1Cl | – | – | > 50 | – | – | ≤ 0.0167 | 10.6 | – | – | – | – | 2.5 | – | 5.3 | –
CCCCOC(=O)c1sc2c([N+](=O)[O-])c(O)c(O)cc2c1Cl | 0.7 (≈ 2.02 µM) | 3.2 (≈ 9.25 µM) | > 2.5 | – | – | 0.698 | 1.3 | Stable | Stable | – | BLD | – | – | – | logD ([7]; BLD = below limit of detection): BLD
CC(C)OC(=O)c1sc2c([N+](=O)[O-])c(O)c(O)cc2c1Cl | 0.5 (≈ 1.51 µM) | 18.7 (≈ 56.4 µM) | > 1 | – | 1.14 | 2.18 | 1.1 | Stable | Stable | 552 | BLD | – | – | – | –
CCCC(=O)OC(C)OC(=O)c1sc2c([N+](=O)[O-])c(O)c(O)cc2c1Cl (stereo unspecified) | 4.6 (≈ 11.4 µM) | 60.4 (≈ 150 µM) | > 50 | 0.5 (≈ 1.24 µM) | 2.16 | ≤ 0.0167 | 16.6 | – | – | – | – | 4.5 | – | 25 | –
CC(C)C(N)C(=O)OCOC(=O)c1sc2c([N+](=O)[O-])c(O)c(O)cc2c1Cl (stereo unspecified) | 17.5 (≈ 41.8 µM) | 10 (≈ 23.9 µM) | 25 | 6600 (≈ 15800 µM) | – | ≤ 0.0167 | 6 | – | – | 40.8 | – | 2 | 0.4 | 0.06 | half-life [16]: 31.7 h
O=C(OCc1coc(=O)o1)c1sc2c([N+](=O)[O-])c(O)c(O)cc2c1Cl | – | – | – | – | – | ≤ 0.0167 | 1.6 | – | – | 93.6 | – | 11.7 | 2.1 | 0.03 | half-life [16]: 167 h
